{"source": "patent US12172975B2", "about": "“1H-indazole carboxamides as receptor-interacting protein kinase 1 inhibitors (RIPK1)” (BRISTOL-MYERS SQUIBB COMPANY, priority 2018, dated 2024)", "key": {"[1]": {"tested_on": "MLKL phosphorylation in HT29-L23 human colorectal adenocarcinoma cells", "assay": "MLKL Phosphorylation High-Content Assay", "type": "cell-based", "settings": "necroptosis induced with TNFα, SMAC mimetic and Z-VAD, 6 h, read-out: pMLKL (IC50)", "summary_of_the_method": "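HT29-L23 cells were induced to necroptosis with TNFα (35 ng/mL), SMAC mimetic (700 nM) and Z-VAD (140 nM) for 6 h at 37 °C. Phospho-MLKL (S358) immunofluorescence was imaged and quantified per cell; maximal inhibition set by Nec-1s (6.25 μM), and IC50/Ymax from 4-parameter logistic fit.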"}, "[2]": {"target": "His-GST-TVMV-hRIPK1 (1-324) (Homo sapiens (Human), UniProt Q13546)", "sequence (Q13546 1-324)": "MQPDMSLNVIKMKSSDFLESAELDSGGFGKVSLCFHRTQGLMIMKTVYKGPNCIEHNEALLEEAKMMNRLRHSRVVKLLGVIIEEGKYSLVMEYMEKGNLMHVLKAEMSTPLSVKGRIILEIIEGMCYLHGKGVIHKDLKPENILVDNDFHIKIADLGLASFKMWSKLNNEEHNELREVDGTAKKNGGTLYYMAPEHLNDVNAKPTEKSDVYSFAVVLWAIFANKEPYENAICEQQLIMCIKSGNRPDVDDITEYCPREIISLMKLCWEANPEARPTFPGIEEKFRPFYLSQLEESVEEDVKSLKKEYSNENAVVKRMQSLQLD", "assay": "RIPK1 HTRF Binding Assay", "settings": "read-out: RIPK1 HTRF (IC50); FRET probe displacement, 1 h at rt"}}, "note": "Structures can show the parent of a compound that is named as a salt. Where two headings read alike, the source gives them in different places.", "data": [{"smiles": "CNC(=O)c1n[nH]c2cc(-c3cnc(OC)c(C(=O)NCCC(O)c4ccc(Cl)cn4)c3)ccc12", "note": "(centres unmarked) [Example 65, 6-(5-{[3-(5-chloropyridin-2-yl)-3-hydroxypropyl]carbamoyl}-6-methoxypyridin-3-yl)-N-methyl-1H-indazole-3-carbox-amide]", "values": [{"measurement": "IC50", "setting": "[1]", "value": 0.0016, "unit": "µM"}, {"measurement": "IC50", "setting": "[2]", "value": 0.0083, "unit": "µM"}]}, {"smiles": "[2H]C([2H])([2H])Oc1ncc(-c2ccc3c(C(=O)NC)n[nH]c3c2)cc1C(=O)NCC[C@H](O)c1ccc(Cl)cc1", "note": "[Example 27, 6-(5-{[(3S)-3-(4-chlorophenyl)-3-hydroxypropyl]carbamoyl}-6-(deutero)methoxypyridin-3-yl)-N-methyl-1H-indazole-3-carbox-amide, TFA]", "values": [{"measurement": "IC50", "setting": "[1]; Homo sapiens", "value": 0.008, "unit": "µM"}, {"measurement": "IC50", "setting": "[2]", "value": 0.0025, "unit": "µM"}]}, {"smiles": "CNC(=O)c1n[nH]c2cc(-c3cnc(OC)c(C(=O)NCc4ccccc4OC4CCCCC4)c3)ccc12", "note": "[Example 113, 6-[5-({[2-(cyclohexyloxy)-phenyl]methyl}carbamoyl)-6-methoxypyridin-3-yl]-N-methyl-1H-indazole-3-carbox-amide]", "values": [{"measurement": "IC50", "setting": "[1]", "value": 0.0097, "unit": "µM"}, {"measurement": "IC50", "setting": "[2]", "value": 0.027, "unit": "µM"}]}, {"smiles": "CNC(=O)c1n[nH]c2cc(-c3cnc(OC)c(C(=O)NCc4cc(C(F)(F)F)ccn4)c3)ccc12", "note": "[Example 143, 6-[6-methoxy-5-({[4-(trifluoro-methyl)pyridin-2-yl]methyl}-carbamoyl)pyridin-3-yl]-N-methyl-1H-indazole-3-carboxamide]", "values": [{"measurement": "IC50", "setting": "[1]; Homo sapiens", "value": 0.026, "unit": "µM"}, {"measurement": "IC50", "setting": "[2]", "value": 0.028, "unit": "µM"}]}, {"smiles": "COc1ncc(-c2ccc3c(C(=O)NCCO)n[nH]c3c2)cc1C(=O)NCc1ccccc1OC(F)(F)F", "note": "[Example 182, N-(2-hydroxyethyl)-6-[6-meth-oxy-5-({[2-(trifluoromethoxy)-phenyl]methyl}carbamoyl)-pyridin-3-yl]-1H-indazole-3-carboxamide]", "values": [{"measurement": "IC50", "setting": "[1]; Homo sapiens", "value": 0.083, "unit": "µM"}, {"measurement": "IC50", "setting": "[2]", "value": 0.012, "unit": "µM"}]}, {"smiles": "CNC(=O)c1n[nH]c2cc(-c3cnc(OC)c(C(=O)NCC4CCCCC4)c3)ccc12", "note": "[Example 138, 6-{5-[(cyclohexylmethyl)-carbamoyl]-6-methoxy-pyridin-3-yl}-N-methyl-1H-indazole-3-carboxamide]", "values": [{"measurement": "IC50", "setting": "[1]; Homo sapiens", "value": 0.089, "unit": "µM"}, {"measurement": "IC50", "setting": "[2]", "value": 0.012, "unit": "µM"}]}, {"smiles": "[2H]C([2H])([2H])Oc1ncc(-c2ccc3c(C(=O)NC4CC(F)(F)C4)n[nH]c3c2)cc1C(=O)N[C@@H]1CN(C(=O)C2CC(F)(F)C2)C[C@@H]1F", "note": "[Example 191, 6-(5-{[(3R,4S)-1-(3,3-difluorocyclo-butanecarbonyl)-4-fluoropyrrolidin-3-yl]carbamoyl}-6-(deutero)methoxy-pyridin-3-yl)-N-(3,3-difluorocyclo-butyl)-1H-indazole-3-carboxamide]", "values": [{"measurement": "IC50", "setting": "[1]; Homo sapiens", "value": 0.089, "unit": "µM"}, {"measurement": "IC50", "setting": "[2]", "value": 0.12, "unit": "µM"}]}, {"smiles": "CNC(=O)c1n[nH]c2cc(-c3cnc(OC)c(C(=O)NC4CCCC(C(=O)N5CCOCC5)C4)c3)ccc12", "note": "(centres unmarked) [Example 98, 6-(6-methoxy-5-{[3-(morpho-line-4-carbonyl)cyclohexyl]-carbamoyl}pyridin-3-yl)-N-methyl-1H-indazole-3-carbox-amide]", "values": [{"measurement": "IC50", "setting": "[1]", "value": 0.046, "unit": "µM"}, {"measurement": "IC50", "setting": "[2]", "value": 0.026, "unit": "µM"}]}, {"smiles": "CCCN(C)C(=O)C1CCCC(NC(=O)c2cc(-c3ccc4c(C(=O)NC)n[nH]c4c3)cnc2OC)C1", "note": "(centres unmarked) [Example 100, 6-[6-methoxy-5-({3-[methyl-(propyl)carbamoyl]cyclo-hexyl}carbamoyl)pyridin-3-yl]-N-methyl-1H-indazole-3-carboxamide]", "values": [{"measurement": "IC50", "setting": "[1]; Homo sapiens", "value": 0.063, "unit": "µM"}, {"measurement": "IC50", "setting": "[2]", "value": 0.018, "unit": "µM"}]}, {"smiles": "[2H]C([2H])([2H])Oc1ncc(-c2ccc3c(C(=O)NC4CC4)n[nH]c3c2)cc1C(=O)N[C@@H](C)c1cc(C(F)(F)F)ccc1F", "note": "[Example 194, N-cyclopropyl-6-(5-{[(1S)-1-[2-fluoro-5-(trifluoromethyl)phenyl]-ethyl]carbamoyl}-6-(deutero)meth-oxypyridin-3-yl)-1H-indazole-3-carboxamide]", "values": [{"measurement": "IC50", "setting": "[1]; Homo sapiens", "value": 0.052, "unit": "µM"}, {"measurement": "IC50", "setting": "[2]", "value": 0.067, "unit": "µM"}]}, {"smiles": "CCNC(=O)c1n[nH]c2cc(-c3cnc(OC)c(C(=O)N[C@@H](C)c4cc(C(F)(F)F)ccc4F)c3)ccc12", "note": "[Example 236, N-[(1,1,2,2,2-deutero)ethyl]-6-(5-{[(1S)-1-[2-fluoro-5-(trifluorometh-yl)phenyl](2,2,2-deutero)ethyl]-carbamoyl}-6-(deutero)methoxy-pyridin-3-yl)-1H-indazole-3-carbox-amide]", "values": [{"measurement": "IC50", "setting": "[1]", "value": 0.04, "unit": "µM"}, {"measurement": "IC50", "setting": "[2]", "value": 0.037, "unit": "µM"}]}, {"smiles": "CCNC(=O)c1n[nH]c2cc(-c3cnc(OC)c(C(=O)N[C@H](C)c4cccc(OC(F)(F)F)c4)c3)ccc12", "note": "[Example 232, N-[(1,1,2,2,2-deutero)ethyl]-6-[6-(deutero)methoxy-5-{[(1R)-1-[3-(trifluoromethoxy)phenyl](2,2,2-deutero)ethyl]carbamoyl}pyridin-3-yl]-1H-indazole-3-carboxamide]", "values": [{"measurement": "IC50", "setting": "[1]", "value": 0.026, "unit": "µM"}, {"measurement": "IC50", "setting": "[2]", "value": 0.033, "unit": "µM"}]}, {"smiles": "[2H]C([2H])([2H])Oc1ncc(-c2ccc3c(C(=O)NC([2H])([2H])C([2H])([2H])[2H])n[nH]c3c2)cc1C(=O)N[C@H](C)c1ccccc1OC(F)(F)F", "note": "[Example 2, (R)—N-(ethyl-d5)-6-(6-(methoxy-d3)-5-((1-(2-(trifluoromethoxy)phenyl)ethyl)carbamoyl)pyridin-3-yl)-1H-indazole-3-carboxamide]", "values": [{"measurement": "IC50", "setting": "[1]; Homo sapiens", "value": 0.0035, "unit": "µM"}, {"measurement": "IC50", "setting": "[2]", "value": 0.0055, "unit": "µM"}]}, {"smiles": "CCNC(=O)c1n[nH]c2cc(-c3cnc(OC)c(C(=O)N[C@H](C)c4cc(OC(F)(F)F)ccc4F)c3)ccc12", "note": "[Example 233, N-[(1,1,2,2,2-deutero)ethyl]-6-(5-{[(1R)-1-[2-fluoro-5-(trifluorometh-oxy)phenyl](2,2,2-deutero)ethyl]-carbamoyl}-6-(deutero)methoxy-pyridin-3-yl)-1H-indazole-3-carbox-amide]", "values": [{"measurement": "IC50", "setting": "[1]", "value": 0.077, "unit": "µM"}, {"measurement": "IC50", "setting": "[2]", "value": 0.054, "unit": "µM"}]}, {"smiles": "[2H]C([2H])([2H])NC(=O)c1n[nH]c2cc(-c3cnc(OC([2H])([2H])[2H])c(C(=O)N[C@H](C)c4cccc(C(F)(F)F)c4)c3)ccc12", "note": "[Example 3, (R)-6-(6-(methoxy-d3)-5-((1-(3-(trifluoromethyl)phenyl)ethyl)carbamoyl)pyridin-3-yl)-N-(methyl-d3)-1H-indazole-3-carboxamide]", "values": [{"measurement": "IC50", "setting": "[1]; Homo sapiens", "value": 0.041, "unit": "µM"}, {"measurement": "IC50", "setting": "[2]", "value": 0.046, "unit": "µM"}]}, {"smiles": "CNC(=O)c1n[nH]c2cc(-c3cc(C(=O)NC(C)c4ccccc4OC(F)(F)F)c(OC)nc3C)ccc12", "note": "(centres unmarked) [Example 158, 6-[6-methoxy-2-methyl-5-({1-[2-(trifluoromethoxy)-phenyl]ethyl}carbamoyl)-pyridin-3-yl]-N-methyl-1H-indazole-3-carboxamide]", "values": [{"measurement": "IC50", "setting": "[1]; Homo sapiens", "value": 0.021, "unit": "µM"}, {"measurement": "IC50", "setting": "[2]", "value": 0.035, "unit": "µM"}]}, {"smiles": "CNC(=O)c1n[nH]c2cc(-c3cnc(OC)c(C(=O)N[C@@H](C)CC(=O)OC(C)(C)C)c3)cc(F)c12", "note": "[Example 146, tert-butyl (3S)-3-({5-[4-fluoro-3-(methylcarbamoyl)-1H-indazol-6-yl]-2-methox-pyridin-3-yl}formamido)-butanoate]", "values": [{"measurement": "IC50", "setting": "[1]; Homo sapiens", "value": 0.4, "unit": "µM"}, {"measurement": "IC50", "setting": "[2]", "value": 0.069, "unit": "µM"}]}, {"smiles": "CNC(=O)c1n[nH]c2cc(-c3cnc(OC)c(C(=O)NC[C@@H]4CCCC[C@H]4NC(=O)OC(C)(C)C)c3)ccc12", "note": "[Example 77, tert-butyl N-[(1R,2S)-2-[({2-methoxy-5-[3-(methylcarbam-oyl)-1H-indazol-6-yl]pyridin-3-yl}formamido)methyl]-cyclohexyl]carbamate]", "values": [{"measurement": "IC50", "setting": "[1]", "value": 0.078, "unit": "µM"}, {"measurement": "IC50", "setting": "[2]", "value": 0.0038, "unit": "µM"}]}, {"smiles": "CNC(=O)c1n[nH]c2cc(-c3cnc(C)c(C(=O)NCc4cc(F)ccc4OC4CCCC4)c3)ccc12", "note": "[Example 157, 6-[5-({[2-(cyclopentyloxy)-5-fluoro-phenyl]methyl}carbamoyl)-6-methylpyridin-3-yl]-N-methyl-1H-indazole-3-carboxamide, TFA]", "values": [{"measurement": "IC50", "setting": "[1]; Homo sapiens", "value": 0.0068, "unit": "µM"}, {"measurement": "IC50", "setting": "[2]", "value": 0.0021, "unit": "µM"}]}]}
